Patent US4469691A, “Hexamethylenetetramine-N-acetyl-thiazolidine-4-carboxylate, a process for its preparation and a pharmaceutical composition containing it” (Ausonia Farmaceutici s.r.l., priority 1982, dated 1984)
Where two headings read alike, the source gives them in different places.

Experiments:
[1] = test system: Serratia spp; test: In vitro antibacterial activity, M.I.C., Serratia spp; type: cell-based; conditions: of 5 strains, pH 5.5
Method: Serratia spp (5 strains)
(§1) As culture medium, Mueller Hinton Agar at pH 5.5 was used. The compounds under examination were dissolved in and diluted by sterile saline; 1 ml of the diluted solutions thus obtained was poured in Petri's dishes and 19 ml of Mueller Hinton Agar were subsequently added thereto.
(§2) The inoculation of bacteria was performed using a multi point inoculator and a 18 hour growth broth culture of each of the strains under examination. With this method the bacterial inoculum is equal to about 10^5 colony-forming units (CFU) per point. Reading of the results was performed after cultivating the plates for 18 hours at 37° C.

[2] = test system: Salmonella spp; test: In vitro antibacterial activity, M.I.C., Salmonella spp; type: cell-based; conditions: of 10 strains, pH 5.5
Method: Salmonella spp (10 strains)
as §1, §2

[3] = test system: Pseudomonas aeruginosa; test: In vitro antibacterial activity, M.I.C., Pseudomonas aeruginosa; type: cell-based; conditions: 62.5 mcg/ml (EMTA; AFP 829 equimolar); of 10 strains; pH 5.5
Method: as §1, §2

[4] = test system: E. coli; test: In vitro antibacterial activity, M.I.C., E. coli; type: cell-based; conditions: of 10 strains, pH 5.5
Method: as §1, §2

[5] = test system: Enterococcus; test: In vitro antibacterial activity, M.I.C., Enterococcus (Streptococcus faecalis); type: cell-based; conditions: of 5 strains, pH 5.5
Method: as §1, §2

[6] = test system: strain of Ps. aeruginosa; parameters: species or system Sprague Dawley rats; Ps. aeruginosa; conditions: rat, in vivo, ip
Method: Each group of animals received the substances i.p. in […] of sterile saline; the animals were placed in metabolic cages with free access to water. Urine samples were collected at the following intervals:
1 ml of nutrient broth at pH 5.5, containing approximately […] colony-forming units of a strain of Ps. aeruginosa sensitive to the action of both substances, was added to 1 ml of the urine or the standard solution of the two drugs dissolved in distilled water.
Standard and urine samples were sequentially diluted twofold by means of the same broth containing the microorganisms until a 1:2048 dilution was achieved.
After overnight incubation at 37° C. the maximum dilution (limit dilution) of the substances or samples inhibiting bacterial growth was determined.
Therefore the concentration of the substances in the urine samples was determined using the formula below: [formula]

[7] = test system: Wistar rats; test: Acute oral toxicity in Wistar rats (Litchfield and Wilcoxon); type: in vivo; conditions: rat
[8] = in vivo, po
[9] = test system: Citrobacter spp; test: In vitro antibacterial activity, M.I.C., Citrobacter spp; type: cell-based; conditions: of 3 strains, pH 5.5
Method: Citrobacter spp (3 strains).
as §1, §2

[10] = test system: liver affections; test: Protective activity against liver affections
[11] = test system: Staphylococcus aureus; test: In vitro antibacterial activity, M.I.C., Staphylococcus aureus; type: cell-based; conditions: of 15 strains, pH 5.5
Method: as §1, §2

[12] = test system: Klebsiella spp; test: In vitro antibacterial activity, M.I.C., Klebsiella spp; type: cell-based; conditions: of 7 strains, pH 5.5
Method: Klebsiella spp (7 strains)
as §1, §2

[13] = test system: 90 strains of different Gram-positive and Gram-negative bacterial species; test: In vitro antibacterial activity, all 90 strains; type: cell-based, Gram-positive and Gram-negative bacteria; conditions: for Antibacterial activity (in words): all microorganisms, AFP 829 versus EMTA
Method: as §1, §2

[14] = test system: Streptococcus; test: In vitro antibacterial activity, M.I.C., Streptococcus (pyogenes); type: cell-based; conditions: of 15 strains, pH 5.5
Method: as §1, §2

[15] = test system: Swiss mice; test: Acute oral toxicity in Swiss mice (Litchfield and Wilcoxon); type: in vivo; conditions: mouse
[16] = test system: male Wistar rats; test: Mucosecretolytic activity in male Wistar rats (method of H. Mawatari); type: in vivo, rat; conditions: for % increase of sodium fluorescein compared with controls: 250 mg/Kg p.o., 10 animals; for Mucosecretolytic activity (in words): oral, rats
Method: Mucosecretolytic activity was determined in male Wistar rats after AFP 829 administration given via the oral route. The method described by H. Mawatari was used for the determination [H. Mawatari, Kagoshima Daiagaku, Igaku Zasshi 27, 561 (1976)]. A drug of known activity--carboxymethylcysteine--was used as the reference standard.

[17] = test system: Proteus spp; test: In vitro antibacterial activity, M.I.C., Proteus spp; type: cell-based; conditions: of 10 strains, pH 5.5
Method: Proteus spp (10 strains)
as §1, §2

[18] = in vivo; cited from earlier work
[19] = Pharmacokinetics in laboratory animals after oral administration
[20] = Acute oral toxicity in Wistar rats (Litchfield and Wilcoxon); type: in vivo; conditions: in vivo, rat
[21] = Acute oral toxicity in Swiss mice (Litchfield and Wilcoxon); type: in vivo; conditions: in vivo, mouse
[22] = 62.5 mcg/ml (EMTA; AFP 829 equimolar)
[23] = 125 mcg/ml (EMTA; AFP 829 equimolar)
[24] = 31.2 mcg/ml (EMTA; AFP 829 equimolar)
[25] = listed as hexamethylenetetramine-N-acetyl-thiazolidine-4-carboxylate (I)
[26] = 15.6 mcg/ml (EMTA; AFP 829 equimolar)
[27] = 250 mcg/ml (EMTA; AFP 829 equimolar)

In the case of `C1N2CN3CN1CN(C2)C3.CC(=O)N1CSCC1C(=O)O` (centres unmarked) [AFP 829, hexamethylenetetramine-N-acetyl-thiazolidine-4-carboxylate], the “M.I.C., cumulative number of strains inhibited” value [1, 22] is reported as 4 strains, the “M.I.C., cumulative number of strains inhibited” value [1, 23] is reported as 5 strains and the “M.I.C., cumulative number of strains inhibited” value [2, 24] is reported as 1 strains. For the same molecule, the “M.I.C., cumulative number of strains inhibited” value [2, 22] was 10 strains, the “M.I.C., cumulative number of strains inhibited” value [3] was 10 strains and the “M.I.C., cumulative number of strains inhibited” value [4, 22] was 10 strains. For the same molecule, the “M.I.C., cumulative number of strains inhibited” value [5, 24] was 1 strains, the “M.I.C., cumulative number of strains inhibited” value [5, 22] was 5 strains and the Concentration in urine ([6]; 1.5 h) was 2000 mcg/ml of urine. For the same molecule, the Concentration in urine ([6]; 2.5 h) was 4000 mcg/ml of urine, the Concentration in urine ([6]; 4.5 h) was 4000 mcg/ml of urine and the Concentration in urine ([6]; 6.5 h) was 1000 mcg/ml of urine. The LD50 [7] was 2100 mg/kg, the “Occurrence in urine (in words)” value [8] was “selectively occur in the urine along with the active metabolites thereof” and the “M.I.C., cumulative number of strains inhibited” value [9, 22] was 3 strains. For the same molecule, the “Protective activity against liver affections (in words)” value [10] was “protective activity against liver affections”, the “M.I.C., cumulative number of strains inhibited” value [11, 22] was 13 strains and the “M.I.C., cumulative number of strains inhibited” value [11, 23] was 15 strains. For the same molecule, the “M.I.C., cumulative number of strains inhibited” value [12, 22] was 7 strains, the “M.I.C.: no microorganism resistant to concentrations higher than” value ([13]; all microorganisms used, pH 5.5) was ≤ 125 µg/mL and the “Antibacterial activity (in words)” value [13] was “active in comparison with all of the microorganisms used”. The “Antibacterial activity (in words)” value [13, 25] was “higher antibacterial activity than hexamethylenetetramine”, the “M.I.C., cumulative number of strains inhibited” value [14, 26] was 5 strains and the “M.I.C., cumulative number of strains inhibited” value [14, 22] was 12 strains. The “M.I.C., cumulative number of strains inhibited” value [14, 23] was 15 strains, the LD50 [15] was 1350 mg/kg and the “% increase of sodium fluorescein compared with controls” value [16] was 96.1%. The “Mucosecretolytic activity (in words)” value [16] was “powerful mucosecretolytic activity, markedly higher than the standard substance”, the “Mucosecretolytic activity (in words)” value [16, 25] was “remarkable mucosecretolytic properties” and the “M.I.C., cumulative number of strains inhibited” value [17, 24] was 3 strains. The “M.I.C., cumulative number of strains inhibited” value [17, 22] was 10 strains.
With `C1N2CN3CN1CN(C2)C3` [EMTA, hexamethylenetetramine] the “M.I.C., cumulative number of strains inhibited” value [1, 22] was 4 strains, the “M.I.C., cumulative number of strains inhibited” value [1, 23] was 5 strains and the “M.I.C., cumulative number of strains inhibited” value [2, 22] was 9 strains. The “M.I.C., cumulative number of strains inhibited” value [2, 23] was 10 strains, the “M.I.C., cumulative number of strains inhibited” value [3] was 10 strains and the “Converted to formaldehyde in acid urine” value [18] was “about 15%”. For the same molecule, the “Eliminated unchanged in the urine” value [18] was 90%, the “Occurrence in urine (in words)” value [19] was “selectively occur in the urine along with the active metabolites thereof” and the “M.I.C., cumulative number of strains inhibited” value [4, 22] was 8 strains. The “M.I.C., cumulative number of strains inhibited” value [4, 23] was 10 strains, the “M.I.C., cumulative number of strains inhibited” value [5, 22] was 4 strains and the “M.I.C., cumulative number of strains inhibited” value [5, 23] was 5 strains. For the same molecule, the LD50 [20] was 1050 mg/kg, the “M.I.C., cumulative number of strains inhibited” value [9, 22] was 1 strains and the “M.I.C., cumulative number of strains inhibited” value [9, 23] was 3 strains. The “M.I.C., cumulative number of strains inhibited” value [11, 22] was 10 strains, the “M.I.C., cumulative number of strains inhibited” value [11, 23] was 14 strains and the “M.I.C., cumulative number of strains inhibited” value [11, 27] was 15 strains. For the same molecule, the “M.I.C., cumulative number of strains inhibited” value [12, 22] was 6 strains, the “M.I.C., cumulative number of strains inhibited” value [12, 23] was 7 strains and the “Antibacterial activity (in words)” value [13] was “slightly less active”. The “M.I.C., cumulative number of strains inhibited” value [14, 26] was 7 strains, the “M.I.C., cumulative number of strains inhibited” value [14, 22] was 11 strains and the “M.I.C., cumulative number of strains inhibited” value [14, 23] was 13 strains. The “M.I.C., cumulative number of strains inhibited” value [14, 27] was 14 strains, the “M.I.C., cumulative number of strains inhibited” value ([14]; 500 mcg/ml (EMTA; AFP 829 equimolar)) was 15 strains and the LD50 [21] was 1500 mg/kg. For the same molecule, the “M.I.C., cumulative number of strains inhibited” value [17, 22] was 10 strains.
Molecule `O=C(O)C1CSCN1` (centres unmarked) [TCA, thiazolidine-4-carboxylic acid] has an LD50 [20] of 800 mg/kg and an LD50 [21] of 400 mg/kg.
For carboxymethylcysteine, the “% increase of sodium fluorescein compared with controls” value [16] was 33.4%.
